Reference: patent US5185149A, “Methods for thrombolytic therapy” (Merck & Co., Inc., priority 1990, dated 1993)

Tested on: blood clots (whole blood or plasma clot labelled with 125I-fibrinogen)
Experiment: in vitro clot lysis assay (release of 125I-fibrin-derived fragments, TPA-initiated lysis)
Type: biochemical
Settings: buffer pH 7.5
Procedure: In the assay, whole blood or plasma is charged with ^125 I-fibrinogen Thrombin is added to initiate clot formation and subsequently incubated for 2 hours to complete the cross-linking by endogenous Factor XIII. Factor XIIIa inhibitor is added prior to clot initiation or at various times during the 2-hour incubation. At the end of this period, the labelled clot is washed and lysis is initiated by exogenous tissue plasminogen activator (TPA). Exogenous plasminogen is employed in some experiments Endogenous plasminogen is used for others. Clot dissolution as a function of time is monitored by the release of solubilized ^125 I-fibrin-derived fragments.
In FIGS. 1 and 2, the open symbols indicate absence of cerulenin and the closed symbols indicate the presence of 200μM cerulenin at the time of clot formation. Clot lysis is conducted in buffer, pH 7.5; 5 ng/mL TPA represents approximate physiologic concentration. 50 to […] represents pharmacologic concentration range. […] FIG. 2 studies employed glu-plasminogen levels at approximately 10 percent physiologic level ([…]).

## C/C=C/C/C=C/CCC(=O)[C@H]1O[C@H]1C(N)=O [Cerulenin, 3-(1-oxo-4,7-nonadienyl)-oxiranecarboxamide]
200μM inhibitor at clot formation, no exogenous plasminogen, TPA at physiological and pharmacological levels, FIG. 1
  rates and extents of clot lysis: enhanced rates and extents of lysis
200μM inhibitor, 12μg/mL exogenous glu-plasminogen, TPA, FIG. 2
  rate of TPA catalyzed clot lysis: lysis rates were further enhanced
